This note sets out measurements from patent publication US8415357B2 (Canbas Co., Ltd., priority 2007, dated 2013).

The subject of one assay is Jurkat cells. Description: Adaptation to G2 cell cycle arrest (G1 increment) in X-ray pre-arrested Jurkat cells, flow cytometry. Particulars: Homo sapiens, Jurkat, 24 h, Table 1; concentration causing half-maximal increase of % cells in G1 phase (G1 increment); Jurkat pre-arrested by 10 Gy X-ray, 24 hours with compound. The assay is classed as cell-based, human. The protocol:
Phenotype-based screening was used to measure the ability of compounds of the invention to cause adaptation to G2 cell cycle arrest in G2-arrested cells. Adaptation to G2 cell cycle arrest and re-entry into the cell cycle can result in death of the previously G2-arrested cell, or suppression (inhibition) of further proliferation of the previously G2-arrested cell. In a non-limiting embodiment, the ability to cause adaptation to G2 cell cycle arrest was measured by contacting cells in which G2 arrest had been induced by irradiation (e.g., gamma (γ) radiation or X-ray radiation), with compounds of the invention at various concentrations and, for each compound at each concentration, determining the percentage of cells that escaped G2 arrest and re-entered the cell cycle, by determining the percentage of cells in G1 phase. The IC50 value for each compound was calculated as the dosage (usually in μM) that caused half-maximal increase of the percentage of cells in G1 phase (the G1 increment) measured for that compound. Certain invention compounds were initially identified by phenotype-based screening of small molecule libraries for activity against G2-arrested cells as described above.
Jurkat cells (a human T cell lymphoma-derived cell line) were arrested at the G2 phase by X-ray irradiation at 10 Gy, and cultured for 24 hours in 10% fetal calf serum (FCS)/RPMI1640 at 37° C. with 5% CO2/air. (FCS was from Equitech-Bio, Kerrville, Tex., and RPMI1640 was from Sigma-Aldrich, St. Louis, Mo.) Test compounds were added to the medium at the indicated doses, and the cells were cultured under the conditions described above, for an additional 24 hours before harvesting.
Harvested cells were stained with Krishan's buffer (0.1% sodium citrate, 50 μg/ml propidium iodide, 20 μg/ml RNase A, 0.5% Nonidet P-40) and analyzed by flow cytometry (BD Biosciences, Franklin Lakes, N.J.) to identify the cell stage of each cell in the sample. Cells in G1 phase were identified by having […] (2N) DNA content.
The IC50 value for each compound was calculated as the dosage showing half maximal activity to induce the increase of the percentage of cells in G1 phase (the G1 increment). IC50 values were used to measure the activity of compounds and to determine structure-activity relationships.
Pre-arrested Jurkat cells were prepared as described in Example 1. Briefly, Jurkat cells were subjected to X-ray irradiation at a dose of 10 Gy, and cultured for 24 hours in 10% fetal calf serum (FCS)/RPMI1640 at 37° C. with 5% CO2/air, after which time cells were exposed to various concentrations of test compounds, and cultured under the conditions described above for an additional 24 hours before harvesting. Harvested cells were stained with Krishan's buffer (0.1% sodium citrate, 50 μg/ml propidium iodide, 20 μg/ml RNase A, 0.5% Nonidet P-40) and analyzed by flow cytometry (BD Biosciences, Franklin Lakes, N.J.) to identify the cell stage of each cell in the sample. Cells in G1 phase were identified by having […] (2N) DNA content.
The IC50 value for each compound was calculated as the dosage (concentration in μM) that caused half-maximal increase of the percentage of cells in G1 phase (the G1 increment) measured for that test compound. Table 1 below presents the structure, mass, 1H NMR values, and […] values for representative compounds.
The IC50 value for each compound was calculated as the dosage (concentration in μM) that caused half-maximal increase of the percentage of cells in G1 phase (the G1 increment) measured for that test compound. Table 2 below presents structures, IUPAC name, molecular formula, ID number (“SCID”), mass, 1H NMR values, and IC50 values for representative compounds. Table 3 presents structures, IUPAC name, molecular formula, ID number (“SCID”), mass, 1H NMR values, and IC50 values for further representative compounds.
Background: Flow cytometry measures light scatter and fluorescence of single cells or particles in a stream.
As a reminder, the IC50 is the concentration at which inhibition is half-maximal. As to `CC1=C(C)C(=O)N(Nc2ccc(-c3ccccc3)cc2)C1=O` [Compound S00515], the IC50 stood at 20000 nM.
Regarding `CC1=C(C)C(=O)N(Nc2ccc(C)c(C(F)(F)F)c2)C1=O` [Compound S00697], the IC50 is 2500 nM.
On the same count and under the same terms, as for `CC1=C(C)C(=O)N(Nc2ccc(C(F)(F)F)cc2Cl)C1=O` [Compound S00699], the figure is 10000 nM.
For `CC1=C(C)C(=O)N(Nc2cc(C(C)(C)C)ccc2Br)C1=O` [Compound S00649], the IC50 was found to be 10000 nM.
As to `CC1=C(C)C(=O)N(Nc2cccc3ccccc23)C1=O` [Compound S00475], the IC50 stood at 3750 nM.
On the same count and under the same terms, under `CSCc1cc(C(F)(F)F)ccc1NN1C(=O)C(C)=C(C)C1=O` [Compound S00499] stands 5000 nM; under `O=C1C2=C(CCCC2)C(=O)N1Nc1ccc(C(F)(F)F)cn1` [Compound S00200], 5000 nM; under `CC1=C(C)C(=O)N(Nc2nc3ccccc3s2)C1=O` [Compound S00295], 5000 nM.

Staying with this assay, now noted: Homo sapiens, Jurkat, 24 h, Table 2; concentration causing half-maximal increase of % cells in G1 phase (G1 increment); Jurkat pre-arrested by 10 Gy X-ray, 24 hours with compound.
In the case of `CC1=C(C)C(=O)N(Nc2ccc(Br)c3ccccc23)C1=O` [Compound S00942, 1-[(4-bromonaphthyl)amino]-3,4-dimethylazoline-2,5-dione], the IC50 stood at 625 nM.
The same measure, in the same setting: as for `CC1=C(C)C(=O)N(Nc2cc(Cl)c(C(F)(F)F)c(-c3ccccc3)n2)C1=O` [Compound S01734], the figure is 450 nM; as for `CON(C)C(=O)CCC1=C(C)C(=O)N(Nc2ccc(C(F)(F)F)c(Cl)n2)C1=O` [Compound S01796, 3-(1-{[6-chloro-5-(trifluoromethyl)(2-pyridyl)]amino}-4-methyl-2,5-dioxoazolin-3-yl)-N-methoxy-N-methylpropanamide], 78 nM; as for `CCOC(=O)CCC1=C(C)C(=O)N(Nc2ccc(C(F)(F)F)c(Cl)n2)C1=O` [Compound S01861, Ethyl 3-(1-{[6-chloro-5-(trifluoromethyl)(2-pyridyl)]amino}-4-methyl-2,5-dioxoazolin-3-yl) propanoate], 50 nM.
As for `CCC1=C(C)C(=O)N(Nc2ccc(C(F)(F)F)c(Cl)n2)C1=O` [Compound S01553, 1-{[6-chloro-5-(trifluoromethyl)(2-pyridyl)]amino}-3-ethyl-4-methylazoline-2,5-dione], the IC50 came out at 450 nM.
On the same count and under the same terms, under `CC1=C(CCC(=O)N(C)c2ccccc2)C(=O)N(Nc2ccc(C(F)(F)F)c(Cl)n2)C1=O` [Compound S01759, 3-(1-{[6-chloro-5-(trifluoromethyl)(2-pyridyl)]amino}-4-methyl-2,5-dioxoazolin-3-yl)-N-methyl-N-phenylpropanamide] stands 625 nM.
The same measure, in the same setting: under `COC(=O)CCC1=C(C)C(=O)N(Nc2ccc(C(F)(F)F)c(Cl)n2)C1=O` [Compound S01648, Methyl 3-(1-{[6-chloro-5-(trifluoromethyl)(2-pyridyl)]amino}-4-methyl-2,5-dioxoazolin-3-yl)propanoate] stands 78 nM.

The assay is the same for the next values; noted with them: Homo sapiens, Jurkat, 24 h, Table 3; concentration causing half-maximal increase of % cells in G1 phase (G1 increment); Jurkat pre-arrested by 10 Gy X-ray, 24 hours with compound.
Regarding `CCOCCC1=C(C)C(=O)N(Nc2ccc(C(F)(F)F)c(Cl)n2)C1=O` [Compound S03960, 1-{[6-chloro-5-(trifluoromethyl)(2-pyridyl)]amino}-3-(2-ethoxyethyl)-4-methylazoline-2,5-dione], the IC50 was determined as 40 nM.
Turning to `CCC(C)OC(=O)CCC1=C(C)C(=O)N(Nc2ccc(C(F)(F)F)c(Cl)n2)C1=O` (stereo not shown) [Compound S02264, Methylpropyl 3-(1-{[6-chloro-5-(trifluoromethyl) (2-pyridyl)]amino}-4-methyl-2,5-dioxoazolin-3-yl) propanoate], the IC50 stood at 40 nM.
As for `CC1=C(CCOCCC(C)C)C(=O)N(Nc2ccc(C(F)(F)F)c(Cl)n2)C1=O` [Compound S03956, 1-{[6-chloro-5-(trifluoromethyl)(2-pyridyl)]amino}-4-methyl-3-[2-(3-methylbutoxy)ethyl]azoline-2,5-dione], the IC50 came to 156 nM.
On the same count and under the same terms, as for `CCCOCCC1=C(C)C(=O)N(Nc2ccc(C(F)(F)F)c(Cl)n2)C1=O` [Compound S04034, 1-{[6-chloro-5-(trifluoromethyl)(2-pyridyl)]amino}-3-methyl-4-(2-propoxyethyl)azoline-2,5-dione], the figure is 40 nM.
